# Experimental data taken from US9708314B2, “Heterocyclic amide compound” (NISSAN CHEMICAL INDUSTRIES, LTD., priority 2013, dated 2017).
# How the values were obtained:
# Type in all cases: in vivo
# [1] = test system: Beta vulgaris ssp. vulgaris; experiment: Test Example 4: effect on crop by application to foliage (diluvial soil, plastic box); details: application to foliage; for f: effect on crop, Beta vulgaris ssp. vulgaris: application herbicide amount 320 g/ha
# Method in brief: (§1)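 Scores run from 0 (herbicidal ratio ≤5%) to 5 (≥90%, almost fully withered) and were assessed three weeks after foliar spraying. Seedlings had been raised for 14 days at 25-30° C in sterilized diluvial soil before treatment, with the emulsion diluted in water to the stated g/ha dose.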
# [2] = test system: directly sowed Oryza sativa; experiment: as above; details: application to foliage; for b: effect on crop, directly sowed Oryza sativa: application herbicide amount 320 g/ha
# Method in brief: as §1
# [3] = test system: Brassica campestris L.; experiment: as above; details: application to foliage; for g: effect on crop, Brassica campestris L.: application herbicide amount 320 g/ha
# Method in brief: as §1
# [4] = test system: Triticum aestivum; experiment: as above; details: application to foliage; for e: effect on crop, Triticum aestivum: application herbicide amount 320 g/ha
# Method in brief: as §1
# [5] = test system: Zea mays; experiment: as above; details: application to foliage; for c: effect on crop, Zea mays: application herbicide amount 320 g/ha
# Method in brief: as §1
# [6] = test system: Glycine max; experiment: as above; details: application to foliage; for d: effect on crop, Glycine max: application herbicide amount 320 g/ha
# Method in brief: as §1
# [7] = test system: Alopecurus myosuroides; experiment: Test Example 4: herbicidal effect by application to foliage (diluvial soil, plastic box); details: application to foliage; for J: herbicidal effect on Alopecurus myosuroides: application herbicide amount 320 g/ha
# Method in brief: as §1
# [8] = test system: Apera spica-venti.; experiment: as above; details: application to foliage; for L: herbicidal effect on Apera spica-venti.: application herbicide amount 320 g/ha
# Method in brief: as §1
# [9] = test system: Avena fatua; experiment: as above; details: application to foliage; for I: herbicidal effect on Avena fatua: application herbicide amount 320 g/ha
# Method in brief: as §1
# [10] = test system: Echinochloa crus-galli var. crus-galli; experiment: as above; details: application to foliage; for H: herbicidal effect on Echinochloa crus-galli var. crus-galli: application herbicide amount 320 g/ha
# Method in brief: as §1
# [11] = test system: Lolium multiflorum Lam.; experiment: as above; details: application to foliage; for K: herbicidal effect on Lolium multiflorum Lam.: application herbicide amount 320 g/ha
# Method in brief: as §1
# [12] = test system: Stellaria media; experiment: as above; details: application to foliage; for P: herbicidal effect on Stellaria media: application herbicide amount 320 g/ha
# Method in brief: as §1
# [13] = test system: Abutilon theophrasti; experiment: as above; details: application to foliage; for M: herbicidal effect on Abutilon theophrasti: application herbicide amount 320 g/ha
# Method in brief: as §1
# [14] = test system: Digitaria ciliaris; experiment: as above; details: application to foliage; for F: herbicidal effect on Digitaria ciliaris: application herbicide amount 320 g/ha
# Method in brief: as §1
# [15] = test system: Veronica persica; experiment: as above; details: application to foliage; for R: herbicidal effect on Veronica persica: application herbicide amount 320 g/ha
# Method in brief: as §1
# [16] = test system: Amaranthus retroflexus; experiment: as above; details: application to foliage; for N: herbicidal effect on Amaranthus retroflexus: application herbicide amount 320 g/ha
# Method in brief: as §1
# [17] = test system: Chenopodium album; experiment: as above; details: application to foliage; for O: herbicidal effect on Chenopodium album: application herbicide amount 320 g/ha
# Method in brief: as §1
# [18] = test system: Setaria viridis; experiment: as above; details: application to foliage; for G: herbicidal effect on Setaria viridis: application herbicide amount 320 g/ha
# Method in brief: as §1
# [19] = test system: Galium spurium; experiment: as above; details: application to foliage; for Q: herbicidal effect on Galium spurium: application herbicide amount 320 g/ha
# Method in brief: as §1
# [20] = test system: Echinochloa crus-galli var. crus-galli; experiment: Test Example 3: herbicidal effect by application to foliage (Wagner pot, water depth 0.1-0.5 cm); details: Nineteenth Table; application to foliage; application herbicide amount 320 g/ha
# Method in brief: (§2)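 A small sprayer delivered the diluted emulsion uniformly to foliage at the chosen rate in g/ha, 14 days after sowing in Wagner pots held at 25–30 °C. Outcome: 0–5 herbicidal-ratio score read three weeks post-treatment.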
# [21] = test system: Leptochloa chinensis; experiment: as above; details: Nineteenth Table; application to foliage; application herbicide amount 320 g/ha
# Method in brief: as §2
# [22] = test system: directly sowed Oryza sativa; experiment: Test Example 3: effect on crop by application to foliage (Wagner pot, water depth 0.1-0.5 cm); details: Nineteenth Table; application to foliage; application herbicide amount 320 g/ha
# Description: 5 Herbicidal ratio of 90% or more (almost completely withered) 4 Herbicidal ratio of 70% or more and less than 90% 3 Herbicidal ratio of 40% or more and less than 70% 2 Herbicidal ratio of 20% or more and less than 40% 1 Herbicidal ratio of 5% or more and less than 20% 0 Herbicidal ratio of 5% or less (almost no effect) [Test Example 3] Herbicidal Effect Test by Application to Foliage After alluvial soil was placed into 1/10000 are of Wagner pot, water was poured and mixed to form a condition having a water depth of 0.1 cm to 0.5 cm. Seeds of Echinochloa crus-galli var. crus-galli, Leptochloa chinensis, Cyperus difformis, and Oryza sativa were sowed and the pot was placed in the greenhouse of 25° C. to 30° C. to grow the plants. After the plants were grown for 14 days, the emulsion agent containing the compound of the present invention prepared in accordance with Formulation Example 2 was diluted with water so as to be a predetermined herbicide amount and the diluted compound was uniformly applied to a stem and leaf part with a small-size spray. Three weeks after the herbicide application, effects on each plant were investigated in accordance with the criteria of Test Example 1. A: Echinochloa oryzicola Vasing., B: Scirpus juncoides, C: Monochoria vaginalis, D: Leptochloa chinensis, E: Cyperus difformis, F: Digitaria ciliaris, G: Setaria viridis, H: Echinochloa crus-galli var. crus-galli, I: Avena fatua, J: Alopecurus myosuroides, K: Lolium multiflorum Lam., L: Apera spica-venti., M: Abutilon theophrasti, N: Amaranthus retroflexus, O: Chenopodium album, P: Stellaria media, Q: Galium spurium, R: Veronica persica, a: transplanted Oryza sativa, b: directly sowed Oryza sativa, c: Zea mays, d: Glycine max, e: Triticum aestivum, f: Beta vulgaris ssp. vulgaris, and g: Brassica campestris L. The application herbicide amount (g/ha) means an amount that a concentration is adjusted so that, when an application amount is converted into per hectare (1 ha), the herbicide is applied by the number of grams (g) of the described value.
Structure (SMILES),H (herbicidal effect grade) [20],D (herbicidal effect grade) [21],b (effect on crop grade) [22],"f: effect on crop, Beta vulgaris ssp. vulgaris [1]","b: effect on crop, directly sowed Oryza sativa [2]","g: effect on crop, Brassica campestris L. [3]","e: effect on crop, Triticum aestivum [4]","c: effect on crop, Zea mays [5]","d: effect on crop, Glycine max [6]",J: herbicidal effect on Alopecurus myosuroides [7],L: herbicidal effect on Apera spica-venti. [8],I: herbicidal effect on Avena fatua [9],H: herbicidal effect on Echinochloa crus-galli var. crus-galli [10],K: herbicidal effect on Lolium multiflorum Lam. [11],P: herbicidal effect on Stellaria media [12],M: herbicidal effect on Abutilon theophrasti [13],F: herbicidal effect on Digitaria ciliaris [14],R: herbicidal effect on Veronica persica [15],N: herbicidal effect on Amaranthus retroflexus [16],O: herbicidal effect on Chenopodium album [17],further results
Cc1nonc1NC(=O)c1ccc(C(F)(F)F)n2c(SCC(C)C)nnc12 [3-002],0 (Herbicidal ratio of 5% or less (almost no effect)),3 (Herbicidal ratio of 40% or more and less than 70%),0 (Herbicidal ratio of 5% or less (almost no effect)),–,–,–,–,–,–,–,–,–,–,–,–,–,–,–,–,–,"effect on crop, f (Beta vulgaris ssp. vulgaris) ([1]; 320 g/ha): 0 (Herbicidal ratio of 5% or less (almost no effect)); effect on crop, d (directly sowed Oryza sativa) ([2]; 320 g/ha): 0 (Herbicidal ratio of 5% or less (almost no effect)); effect on crop, g (Brassica campestris L.) ([3]; 320 g/ha): 0 (Herbicidal ratio of 5% or less (almost no effect)); effect on crop, e (Triticum aestivum) ([4]; 320 g/ha): 0 (Herbicidal ratio of 5% or less (almost no effect)); effect on crop, b (Zea mays) ([5]; 320 g/ha): 0 (Herbicidal ratio of 5% or less (almost no effect)); effect on crop, c (Glycine max) ([6]; 320 g/ha): 0 (Herbicidal ratio of 5% or less (almost no effect)); herbicidal effect, J (Alopecurus myosuroides) ([7]; 320 g/ha): 0 (Herbicidal ratio of 5% or less (almost no effect)); herbicidal effect, L (Apera spica-venti.) ([8]; 320 g/ha): 0 (Herbicidal ratio of 5% or less (almost no effect)); herbicidal effect, I (Avena fatua) ([9]; 320 g/ha): 0 (Herbicidal ratio of 5% or less (almost no effect)); herbicidal effect, H (Echinochloa crus-galli var. crus-galli) ([10]; 320 g/ha): 0 (Herbicidal ratio of 5% or less (almost no effect)); herbicidal effect, K (Lolium multiflorum Lam.) ([11]; 320 g/ha): 0 (Herbicidal ratio of 5% or less (almost no effect)); herbicidal effect, P (Stellaria media) ([12]; 320 g/ha): 1 (Herbicidal ratio of 5% or more and less than 20%); herbicidal effect, M (Abutilon theophrasti) ([13]; 320 g/ha): 1 (Herbicidal ratio of 5% or more and less than 20%); herbicidal effect, F (Digitaria ciliaris) ([14]; 320 g/ha): 0 (Herbicidal ratio of 5% or less (almost no effect)); herbicidal effect, R (Veronica persica) ([15]; 320 g/ha): 0 (Herbicidal ratio of 5% or less (almost no effect)); herbicidal effect, N (Amaranthus retroflexus) ([16]; 320 g/ha): 3 (Herbicidal ratio of 40% or more and less than 70%); herbicidal effect, O (Chenopodium album) ([17]; 320 g/ha): 4 (Herbicidal ratio of 70% or more and less than 90%); herbicidal effect, G (Setaria viridis) ([18]; 320 g/ha): 0 (Herbicidal ratio of 5% or less (almost no effect)); herbicidal effect, Q (Galium spurium) ([19]; 320 g/ha): 0 (Herbicidal ratio of 5% or less (almost no effect))"
Cc1nnc(NC(=O)c2ccc(C(F)(F)F)n3c(C4CC=CCC4)nnc23)o1 (stereo not drawn) [1-170],2 (Herbicidal ratio of 20% or more and less than 40%),4 (Herbicidal ratio of 70% or more and less than 90%),1 (Herbicidal ratio of 5% or more and less than 20%),5 (Herbicidal ratio of 90% or more (almost completely withered)),0 (Herbicidal ratio of 5% or less (almost no effect)),3 (Herbicidal ratio of 40% or more and less than 70%),0 (Herbicidal ratio of 5% or less (almost no effect)),0 (Herbicidal ratio of 5% or less (almost no effect)),2 (Herbicidal ratio of 20% or more and less than 40%),0 (Herbicidal ratio of 5% or less (almost no effect)),1 (Herbicidal ratio of 5% or more and less than 20%),1 (Herbicidal ratio of 5% or more and less than 20%),4 (Herbicidal ratio of 70% or more and less than 90%),1 (Herbicidal ratio of 5% or more and less than 20%),4 (Herbicidal ratio of 70% or more and less than 90%),3 (Herbicidal ratio of 40% or more and less than 70%),4 (Herbicidal ratio of 70% or more and less than 90%),4 (Herbicidal ratio of 70% or more and less than 90%),3 (Herbicidal ratio of 40% or more and less than 70%),5 (Herbicidal ratio of 90% or more (almost completely withered)),G: herbicidal effect on Setaria viridis [18]: 3 (Herbicidal ratio of 40% or more and less than 70%); Q: herbicidal effect on Galium spurium [19]: 2 (Herbicidal ratio of 20% or more and less than 40%)
"CCN(C(=O)c1ccc(C(F)(F)F)n2c(C3(C)CC3(Cl)Cl)nnc12)c1nnc(C)o1 (stereo not drawn) [1-174, 3-(2,2-Dichloro-1-methylcyclopropyl)-N-ethyl-N-(5-methyl-1,3,4-oxadiazol-2-yl)-5-(trifluoromethyl)-[1,2,4]triazolo[4,3-a]pyridine-8-carboxamide]",2 (Herbicidal ratio of 20% or more and less than 40%),2 (Herbicidal ratio of 20% or more and less than 40%),0 (Herbicidal ratio of 5% or less (almost no effect)),4 (Herbicidal ratio of 70% or more and less than 90%),0 (Herbicidal ratio of 5% or less (almost no effect)),0 (Herbicidal ratio of 5% or less (almost no effect)),0 (Herbicidal ratio of 5% or less (almost no effect)),0 (Herbicidal ratio of 5% or less (almost no effect)),0 (Herbicidal ratio of 5% or less (almost no effect)),0 (Herbicidal ratio of 5% or less (almost no effect)),0 (Herbicidal ratio of 5% or less (almost no effect)),0 (Herbicidal ratio of 5% or less (almost no effect)),0 (Herbicidal ratio of 5% or less (almost no effect)),0 (Herbicidal ratio of 5% or less (almost no effect)),3 (Herbicidal ratio of 40% or more and less than 70%),0 (Herbicidal ratio of 5% or less (almost no effect)),0 (Herbicidal ratio of 5% or less (almost no effect)),3 (Herbicidal ratio of 40% or more and less than 70%),4 (Herbicidal ratio of 70% or more and less than 90%),5 (Herbicidal ratio of 90% or more (almost completely withered)),G: herbicidal effect on Setaria viridis [18]: 0 (Herbicidal ratio of 5% or less (almost no effect)); Q: herbicidal effect on Galium spurium [19]: 3 (Herbicidal ratio of 40% or more and less than 70%)
